{
  "source": "paper PMC8348780",
  "about": "“Preparation and Evaluation of Novel Folate Isonitrile ^99mTc Complexes as Potential Tumor Imaging Agents to Target Folate Receptors” (Molecules, 2021)",
  "key": {"[1]": {"experiment": "Partition coefficient, 1-octanol / phosphate buffer pH 7.4", "assay_type": "physicochemical", "details": "1-octanol / phosphate buffer 0.025 M", "procedure": "The partition coefficient was measured as follows: 1.9 mL of phosphate buffer solution (0.025 M, pH 7.4), 2.0 mL of 1-octanol, and 0.1 mL of ^99mTc-CN5FA or ^99mTc-CNPFA solution were added to the centrifuge tube, and the sample was swirled for 5 min and centrifuged for 5 min (3000 r/min). Then, the radioactivity counts of the two phases were measured by taking 0.1 mL from the organic phase and the water phase. The partition coefficient P was calculated. The final partition coefficient was expressed as log P ± SD."}, "KB tumor-bearing mice [2]": {"tested_on": "KB tumor-bearing mice", "experiment": "Biodistribution study in KB tumor-bearing mice", "assay_type": "in vivo, BALB/c nude mice", "details": "for Tumor uptake: KB tumor", "procedure": "The biodistribution experiments were divided into normal groups and inhibition groups (n = 3), in which the inhibition group was injected with inhibitor (about 4 × 10^4 µg/kg) 30 min in advance. The KB tumor-bearing mice were decapitated 30 and 120 min after the tail vein injection of 0.1 mL labeled solution (about 7.4 × 10^4 Bq). The heart, liver, lung, kidney, spleen, stomach, bone, muscle, intestine, tumor, blood, and other related tissues and organs were wiped clean and weighed, and the radioactivity count was measured. Each tissue per gram of injection dose (%ID/g) was calculated."}, "KB tumor-bearing mice [3]": {"tested_on": "KB tumor-bearing mice", "experiment": "SPECT/CT imaging study in KB tumor-bearing mice", "assay_type": "in vivo, BALB/c nude mice", "details": "2 h post injection, about 18.5 MBq i.v.", "procedure": "The SPECT/CT imaging experiments were also divided into a normal group and an inhibition group (n = 3). The labeled solution (about 18.5 MBq) was injected into the tail vein of nude mice bearing KB tumor. The inhibition group was injected with 100 µg FA (about 4 × 10^4 µg/kg) 30 min in advance. After 2 h, the SPECT/CT scan was performed in anesthetized mice by using 1.5% isoflurane. The SPECT acquisition (peak value 140 keV, 20% width, 90° rotation, MMP 919 Collimator) was performed after 4 min of CT scanning (512 views, 2 × 2 binding, 75 kV, exposure time 230 ms). SPECT/CT images were made using HiSPECT software and vivoquant 2.5 software."}, "[4]": {"experiment": "Stability in mouse serum at 37 °C (RCP by radio-HPLC)", "assay_type": "in vitro ADME", "details": "4 h", "procedure": "(§1) The complexes were determined by ITLC/SG of the ACD system and radio-HPLC. The ITLC/SG trip was cut into 10 equal parts, and radioactive counting of ITLC strips was determined by a γ-counter. ITLC results of both complexes were as follows: in ACD solution, [^99mTc]Tc-CN5FA and [^99mTc]Tc-CNPFA stayed at the origin (Rf = 0–0.1), while ^99mTcO4^− (Rf = 0.9–1.0) and ^99mTcO2·nH2O (Rf = 0.8–1.0) were moved to the front. Radio-HPLC was analyzed by a mobile phase system consisting of 0.1% TFA water (solvent A) and 0.1% TFA acetonitrile (solvent B) with a gradient of 0−2 min 10% B, 2−5 min 10%−90% B, 10−20 min 90% B, and 20−25 min 90%−10% B (system B) at a flow rate of 1 mL/min. All experiments were performed in triplicate.\n(§2) The stability of [^99mTc]Tc-CN5FA and [^99mTc]Tc-CNPFA in vitro was evaluated by measuring the RCP of the complexes. Stability in saline was achieved by holding the solution at room temperature for 4 h. Stability in the serum was achieved by mixing 100 μL of [^99mTc]Tc-CN5FA or [^99mTc]Tc-CNPFA with 200 μL of mouse serum at 37 °C for 4 h. After precipitation using acetonitrile, centrifugation, and concentration, the solutions were analyzed by radio-HPLC."}, "[5]": {"experiment": "Stability in saline / radiolabeling solution at room temperature (RCP by radio-HPLC)", "assay_type": "physicochemical", "details": "4 h", "procedure": "as §1, §2"}, "[6]": {"biological_target": "T1, folate receptor (KB cells) (Homo sapiens, UniProt P15328)", "T1 construct": "endogenous in cells; host or cells: KB cells", "T1 sequence (P15328 25-257)": "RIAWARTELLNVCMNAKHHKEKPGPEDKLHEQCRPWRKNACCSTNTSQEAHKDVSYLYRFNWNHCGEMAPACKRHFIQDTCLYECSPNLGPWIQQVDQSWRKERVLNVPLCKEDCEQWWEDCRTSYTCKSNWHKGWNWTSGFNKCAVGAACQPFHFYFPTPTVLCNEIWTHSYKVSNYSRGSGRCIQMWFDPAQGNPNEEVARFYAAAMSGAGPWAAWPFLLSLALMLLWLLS", "experiment": "In vitro competitive binding with KB cells", "details": "37 °C, 2 h, competitive binding with inhibitor", "procedure": "KB cells were cultured with FFRPMI 1640 medium 24 h in advance on a 48-well plate with 5 × 10^4 cells per well. The labeling solution was diluted to 5 μCi/mL with the same medium after growing, and the inhibitor was prepared at different concentrations. The 48-well plates were divided into eight groups, and each group was incubated with 100 μL of inhibitor solution, 100 μL of diluted labeled solution (5 μCi/mL), and 200 μL of medium at 37 °C for 2 h.\nAfter removing the cell plate from the incubator, the medium was removed, and the cells were washed with PBS (0.1 M, pH 7.4). The washed cells were lysed with NaOH (1 M) for 5 min. Pyrolysates were collected in the hoses, and the radioactivity count of each hose was measured by a γ-counter. The data were analyzed with GraphPad Prism 5.0 and nonlinearly fit to the log IC50 ± SD value."}, "[7]": {"details": "2 h p.i., block: FA about 4 × 10^4 µg/kg 30 min in advance"}},
  "data": [
    {"smiles": "[99Tc+].[C-]#[N+]CCCCCC(=O)NCCNC(=O)CC[C@H](NC(=O)c1ccc(NCc2cnc3nc(N)[nH]c(=O)c3n2)cc1)C(=O)O.[C-]#[N+]CCCCCC(=O)NCCNC(=O)CC[C@H](NC(=O)c1ccc(NCc2cnc3nc(N)[nH]c(=O)c3n2)cc1)C(=O)O.[C-]#[N+]CCCCCC(=O)NCCNC(=O)CC[C@H](NC(=O)c1ccc(NCc2cnc3nc(N)[nH]c(=O)c3n2)cc1)C(=O)O.[C-]#[N+]CCCCCC(=O)NCCNC(=O)CC[C@H](NC(=O)c1ccc(NCc2cnc3nc(N)[nH]c(=O)c3n2)cc1)C(=O)O.[C-]#[N+]CCCCCC(=O)NCCNC(=O)CC[C@H](NC(=O)c1ccc(NCc2cnc3nc(N)[nH]c(=O)c3n2)cc1)C(=O)O.[C-]#[N+]CCCCCC(=O)NCCNC(=O)CC[C@H](NC(=O)c1ccc(NCc2cnc3nc(N)[nH]c(=O)c3n2)cc1)C(=O)O", "note": "[[^99mTc]Tc-CN5FA]", "values": [
      {"measurement": "log P", "setting": "[1]", "result": "−1.92 ± 0.15"},
      {"measurement": "T/B (tumor/blood ratio)", "setting": "KB tumor-bearing mice [2]; 0.5 h p.i.", "result": 1.28},
      {"measurement": "T/M (tumor/muscle ratio)", "setting": "KB tumor-bearing mice [2]; 0.5 h p.i.", "result": 1.76},
      {"measurement": "Blood uptake", "setting": "KB tumor-bearing mice [2]; 0.5 h p.i., i.v., n = 3", "result": "2.36 ± 0.10", "unit": "%ID/g"},
      {"measurement": "Bone uptake", "setting": "KB tumor-bearing mice [2]; 0.5 h p.i., i.v., n = 3", "result": "1.03 ± 0.09", "unit": "%ID/g"},
      {"measurement": "Heart uptake", "setting": "KB tumor-bearing mice [2]; 0.5 h p.i., i.v., n = 3", "result": "2.60 ± 0.16", "unit": "%ID/g"},
      {"measurement": "Intestines uptake", "setting": "KB tumor-bearing mice [2]; 0.5 h p.i., i.v., n = 3", "result": "2.35 ± 0.79", "unit": "%ID/g"},
      {"measurement": "Kidney uptake", "setting": "KB tumor-bearing mice [2]; 0.5 h p.i., i.v., n = 3", "result": "47.20 ± 2.99", "unit": "%ID/g"},
      {"measurement": "Liver uptake", "setting": "KB tumor-bearing mice [2]; 0.5 h p.i., i.v., n = 3", "result": "13.91 ± 1.27", "unit": "%ID/g"},
      {"measurement": "Lung uptake", "setting": "KB tumor-bearing mice [2]; 0.5 h p.i., i.v., n = 3", "result": "2.88 ± 0.09", "unit": "%ID/g"},
      {"measurement": "Muscle uptake", "setting": "KB tumor-bearing mice [2]; 0.5 h p.i., i.v., n = 3", "result": "1.72 ± 0.10", "unit": "%ID/g"},
      {"measurement": "Spleen uptake", "setting": "KB tumor-bearing mice [2]; 0.5 h p.i., i.v., n = 3", "result": "3.07 ± 0.03", "unit": "%ID/g"},
      {"measurement": "Stomach uptake", "setting": "KB tumor-bearing mice [2]; 0.5 h p.i., i.v., n = 3", "result": "2.17 ± 0.70", "unit": "%ID/g"},
      {"measurement": "Thyroid uptake", "setting": "KB tumor-bearing mice [2]; 0.5 h p.i., i.v., n = 3", "result": "0.05 ± 0.00", "unit": "%ID"},
      {"measurement": "T/M (tumor/muscle ratio)", "setting": "KB tumor-bearing mice [2]; 2 h p.i.", "result": 1.91},
      {"measurement": "Blood uptake", "setting": "KB tumor-bearing mice [2]; [7]", "result": "1.05 ± 0.08", "unit": "%ID/g"},
      {"measurement": "Bone uptake", "setting": "KB tumor-bearing mice [2]; [7]", "result": "1.02 ± 0.18", "unit": "%ID/g"},
      {"measurement": "Heart uptake", "setting": "KB tumor-bearing mice [2]; [7]", "result": "0.84 ± 0.05", "unit": "%ID/g"},
      {"measurement": "Intestines uptake", "setting": "KB tumor-bearing mice [2]; [7]", "result": "1.39 ± 0.15", "unit": "%ID/g"},
      {"measurement": "Kidney uptake", "setting": "KB tumor-bearing mice [2]; [7]", "result": "35.40 ± 4.08", "unit": "%ID/g"},
      {"measurement": "Liver uptake", "setting": "KB tumor-bearing mice [2]; [7]", "result": "10.22 ± 0.43", "unit": "%ID/g"},
      {"measurement": "Lung uptake", "setting": "KB tumor-bearing mice [2]; [7]", "result": "2.27 ± 0.16", "unit": "%ID/g"},
      {"measurement": "Muscle uptake", "setting": "KB tumor-bearing mice [2]; [7]", "result": "0.61 ± 0.10", "unit": "%ID/g"},
      {"measurement": "Spleen uptake", "setting": "KB tumor-bearing mice [2]; [7]", "result": "4.52 ± 0.38", "unit": "%ID/g"},
      {"measurement": "Stomach uptake", "setting": "KB tumor-bearing mice [2]; [7]", "result": "1.70 ± 0.16", "unit": "%ID/g"},
      {"measurement": "Thyroid uptake", "setting": "KB tumor-bearing mice [2]; [7]", "result": "0.03 ± 0.00", "unit": "%ID"},
      {"measurement": "Blood uptake", "setting": "KB tumor-bearing mice [2]; 2 h p.i., i.v., n = 3", "result": "1.08 ± 0.03", "unit": "%ID/g"},
      {"measurement": "Bone uptake", "setting": "KB tumor-bearing mice [2]; 2 h p.i., i.v., n = 3", "result": "0.87 ± 0.16", "unit": "%ID/g"},
      {"measurement": "Heart uptake", "setting": "KB tumor-bearing mice [2]; 2 h p.i., i.v., n = 3", "result": "2.29 ± 0.26", "unit": "%ID/g"},
      {"measurement": "Intestines uptake", "setting": "KB tumor-bearing mice [2]; 2 h p.i., i.v., n = 3", "result": "1.38 ± 0.15", "unit": "%ID/g"},
      {"measurement": "Kidney uptake", "setting": "KB tumor-bearing mice [2]; 2 h p.i., i.v., n = 3", "result": "51.92 ± 3.10", "unit": "%ID/g"},
      {"measurement": "Liver uptake", "setting": "KB tumor-bearing mice [2]; 2 h p.i., i.v., n = 3", "result": "11.88 ± 1.22", "unit": "%ID/g"},
      {"measurement": "Lung uptake", "setting": "KB tumor-bearing mice [2]; 2 h p.i., i.v., n = 3", "result": "2.78 ± 0.57", "unit": "%ID/g"},
      {"measurement": "Muscle uptake", "setting": "KB tumor-bearing mice [2]; 2 h p.i., i.v., n = 3", "result": "1.27 ± 0.03", "unit": "%ID/g"},
      {"measurement": "Spleen uptake", "setting": "KB tumor-bearing mice [2]; 2 h p.i., i.v., n = 3", "result": "3.08 ± 0.42", "unit": "%ID/g"},
      {"measurement": "Stomach uptake", "setting": "KB tumor-bearing mice [2]; 2 h p.i., i.v., n = 3", "result": "2.00 ± 0.33", "unit": "%ID/g"},
      {"measurement": "Thyroid uptake", "setting": "KB tumor-bearing mice [2]; 2 h p.i., i.v., n = 3", "result": "0.03 ± 0.01", "unit": "%ID"},
      {"measurement": "Tumor uptake", "setting": "KB tumor-bearing mice [2]; 0.5 h p.i., i.v., n = 3", "result": "3.03 ± 0.10", "unit": "%ID/g"},
      {"measurement": "Tumor uptake", "setting": "KB tumor-bearing mice [2]; [7]", "result": "1.53 ± 0.10", "unit": "%ID/g"},
      {"measurement": "Tumor uptake", "setting": "KB tumor-bearing mice [2]; 2 h p.i., i.v., n = 3", "result": "2.42 ± 0.44", "unit": "%ID/g"},
      {"measurement": "Visualization of tumor lesions by SPECT/CT", "setting": "KB tumor-bearing mice [3]", "result": "clearly visualized"},
      {"measurement": "RCP after incubation", "setting": "[4]", "result": "more than 95%"},
      {"measurement": "RCP after incubation", "setting": "[5]", "result": "more than 95%"},
      {"measurement": "IC50", "setting": "[6]", "result": "37.9 ± 0.41", "unit": "nM"}
    ]}
  ]
}
